Columns and labels:
[1] = Drug uptake in anesthetized cynomolgus monkey brain occipital lobe after 95 mins postinjection; format: ADME, organism-based, Macaca fascicularis; details: in vivo
Putamen [2] = experiment: Drug uptake in anesthetized cynomolgus monkey brain putamen after 45 mins postinjection; format: ADME, organism-based, Macaca fascicularis; design: unit not given here; details: in vivo, 0.75 h
[3] = Ratio of drug uptake in medulla to cerebellum in anesthetized cynomolgus monkey after 9.5 mins postinjection; format: ADME, organism-based, Macaca fascicularis; details: in vivo
Medulla [4] = experiment: Drug uptake in anesthetized cynomolgus monkey brain medulla after 85 mins postinjection; format: ADME, organism-based, Macaca fascicularis; details: in vivo
[5] = Ratio of drug uptake in frontal lobe to cerebellum in anesthetized cynomolgus monkey after 3.5 mins postinjection; format: ADME, organism-based, Macaca fascicularis; details: in vivo
Putamen [6] = experiment: Drug uptake in anesthetized cynomolgus monkey brain putamen after 35 mins postinjection; format: ADME, organism-based, Macaca fascicularis; design: unit not given here; details: in vivo
[7] = Drug uptake in anesthetized cynomolgus monkey brain frontal lobe after 155 mins postinjection; format: ADME, organism-based, Macaca fascicularis; details: in vivo
[8] = Ratio of drug uptake in occipital lobe to cerebellum in anesthetized cynomolgus monkey after 95 mins postinjection; format: ADME, organism-based, Macaca fascicularis; details: in vivo
[9] = Ratio of drug uptake in putamen to cerebellum in anesthetized cynomolgus monkey after 65 mins postinjection; format: ADME, organism-based, Macaca fascicularis; details: in vivo
[10] = Drug uptake in anesthetized cynomolgus monkey brain occipital lobe after 18.5 mins postinjection; format: ADME, organism-based, Macaca fascicularis; details: in vivo
[11] = Drug uptake in anesthetized cynomolgus monkey brain cerebellum after 65 mins postinjection; format: ADME, organism-based, Macaca fascicularis; details: in vivo
[12] = Drug uptake in anesthetized cynomolgus monkey brain frontal lobe after 55 mins postinjection; format: ADME, organism-based, Macaca fascicularis; details: in vivo
Caudate [13] = experiment: Drug uptake in anesthetized cynomolgus monkey brain caudate after 165 mins postinjection; format: ADME, organism-based, Macaca fascicularis, Caudate nucleus; details: in vivo, 2.75 h
Midbrain [14] = experiment: Drug uptake in anesthetized cynomolgus monkey brain midbrain after 225 mins postinjection; format: ADME, organism-based, Macaca fascicularis; details: in vivo, 3.75 h
Putamen [15] = experiment: Drug uptake in anesthetized cynomolgus monkey brain putamen after 145 mins postinjection; format: ADME, organism-based, Macaca fascicularis; details: in vivo
Thalamus [16] = experiment: Drug uptake in anesthetized cynomolgus monkey brain thalamus after 15.5 mins postinjection; format: ADME, organism-based, Macaca fascicularis; design: unit not given here; details: in vivo
[17] = Ratio of drug uptake in caudate to cerebellum in anesthetized cynomolgus monkey after 135 mins postinjection; format: ADME, organism-based, Macaca fascicularis; details: in vivo, 2.25 h
Thalamus [18] = experiment: Drug uptake in anesthetized cynomolgus monkey brain thalamus after 3.5 mins postinjection; format: ADME, organism-based, Macaca fascicularis; design: unit not given here; details: in vivo
[19] = Ratio of drug uptake in midbrain to cerebellum in anesthetized cynomolgus monkey after 18.5 mins postinjection; format: ADME, organism-based, Macaca fascicularis; details: in vivo
Pons [20] = experiment: Drug uptake in anesthetized cynomolgus monkey brain pons after 35 mins postinjection; format: ADME, organism-based, Macaca fascicularis; details: in vivo
Putamen [21] = experiment: Drug uptake in anesthetized cynomolgus monkey brain putamen after 85 mins postinjection; format: ADME, organism-based, Macaca fascicularis; design: unit not given here; details: in vivo
Putamen [22] = experiment: Drug uptake in anesthetized cynomolgus monkey brain putamen after 1.5 mins postinjection; format: ADME, organism-based, Macaca fascicularis; details: in vivo, 0.025 h
[23] = Ratio of drug uptake in medulla to cerebellum in anesthetized cynomolgus monkey after 85 mins postinjection; format: ADME, organism-based, Macaca fascicularis; details: in vivo
Midbrain [24] = experiment: Drug uptake in anesthetized cynomolgus monkey brain midbrain after 4.5 mins postinjection; format: ADME, organism-based, Macaca fascicularis; design: unit not given here; details: in vivo, 0.075 h
[25] = Ratio of drug uptake in frontal lobe to cerebellum in anesthetized cynomolgus monkey after 95 mins postinjection; format: ADME, organism-based, Macaca fascicularis; details: in vivo
Medulla [26] = experiment: Drug uptake in anesthetized cynomolgus monkey brain medulla after 215 mins postinjection; format: ADME, organism-based, Macaca fascicularis; details: in vivo
[27] = Ratio of drug uptake in midbrain to cerebellum in anesthetized cynomolgus monkey after 215 mins postinjection; format: ADME, organism-based, Macaca fascicularis; details: in vivo
Midbrain [28] = experiment: Drug uptake in anesthetized cynomolgus monkey brain midbrain after 45 mins postinjection; format: ADME, organism-based, Macaca fascicularis; design: unit not given here; details: in vivo, 0.75 h
Caudate [29] = experiment: Drug uptake in anesthetized cynomolgus monkey brain caudate after 1.5 mins postinjection; format: ADME, organism-based, Macaca fascicularis, Caudate nucleus; details: in vivo, 0.025 h
Medulla [30] = experiment: Drug uptake in anesthetized cynomolgus monkey brain medulla after 235 mins postinjection; format: ADME, organism-based, Macaca fascicularis; details: in vivo
Midbrain [31] = experiment: Drug uptake in anesthetized cynomolgus monkey brain midbrain after 105 mins postinjection; format: ADME, organism-based, Macaca fascicularis; design: unit not given here; details: in vivo, 1.75 h
[32] = Ratio of drug uptake in midbrain to cerebellum in anesthetized cynomolgus monkey after 22.5 mins postinjection; format: ADME, organism-based, Macaca fascicularis; details: in vivo, 0.375 h
[33] = Ratio of drug uptake in caudate to cerebellum in anesthetized cynomolgus monkey after 18.5 mins postinjection; format: ADME, organism-based, Macaca fascicularis; details: in vivo
Putamen [34] = experiment: Drug uptake in anesthetized cynomolgus monkey brain putamen after 9.5 mins postinjection; format: ADME, organism-based, Macaca fascicularis; design: unit not given here; details: in vivo
Putamen [35] = experiment: Drug uptake in anesthetized cynomolgus monkey brain putamen after 3.5 mins postinjection; format: ADME, organism-based, Macaca fascicularis; details: in vivo
[36] = Ratio of drug uptake in putamen to cerebellum in anesthetized cynomolgus monkey after 6.5 mins postinjection; format: ADME, organism-based, Macaca fascicularis; details: in vivo
Thalamus [37] = experiment: Drug uptake in anesthetized cynomolgus monkey brain thalamus after 27.5 mins postinjection; format: ADME, organism-based, Macaca fascicularis; design: unit not given here; details: in vivo
Midbrain [38] = experiment: Drug uptake in anesthetized cynomolgus monkey brain midbrain after 115 mins postinjection; format: ADME, organism-based, Macaca fascicularis; design: unit not given here; details: in vivo
[39] = Drug uptake in anesthetized cynomolgus monkey brain occipital lobe after 65 mins postinjection; format: ADME, organism-based, Macaca fascicularis; details: in vivo
Putamen [40] = experiment: Drug uptake in anesthetized cynomolgus monkey brain putamen after 115 mins postinjection; format: ADME, organism-based, Macaca fascicularis; design: unit not given here; details: in vivo
[41] = Drug uptake in anesthetized cynomolgus monkey brain occipital lobe after 4.5 mins postinjection; format: ADME, organism-based, Macaca fascicularis; details: in vivo, 0.075 h
[42] = Drug uptake in anesthetized cynomolgus monkey brain frontal lobe after 2.5 mins postinjection; format: ADME, organism-based, Macaca fascicularis; details: in vivo
[43] = Ratio of drug uptake in putamen to cerebellum in anesthetized cynomolgus monkey after 3.5 mins postinjection; format: ADME, organism-based, Macaca fascicularis; details: in vivo
Medulla [44] = experiment: Drug uptake in anesthetized cynomolgus monkey brain medulla after 135 mins postinjection; format: ADME, organism-based, Macaca fascicularis; details: in vivo, 2.25 h
[45] = Drug uptake in anesthetized cynomolgus monkey brain frontal lobe after 3.5 mins postinjection; format: ADME, organism-based, Macaca fascicularis; details: in vivo
[46] = Drug uptake in anesthetized cynomolgus monkey brain frontal lobe after 65 mins postinjection; format: ADME, organism-based, Macaca fascicularis; details: in vivo
[47] = Drug uptake in anesthetized cynomolgus monkey brain cerebellum after 115 mins postinjection; format: ADME, organism-based, Macaca fascicularis; details: in vivo
Caudate [48] = experiment: Drug uptake in anesthetized cynomolgus monkey brain caudate after 15.5 mins postinjection; format: ADME, organism-based, Macaca fascicularis, Caudate nucleus; details: in vivo
Midbrain [49] = experiment: Drug uptake in anesthetized cynomolgus monkey brain midbrain after 2.5 mins postinjection; format: ADME, organism-based, Macaca fascicularis; design: unit not given here; details: in vivo
Pons [50] = experiment: Drug uptake in anesthetized cynomolgus monkey brain pons after 9.5 mins postinjection; format: ADME, organism-based, Macaca fascicularis; details: in vivo
[51] = Ratio of drug uptake in putamen to cerebellum in anesthetized cynomolgus monkey after 35 mins postinjection; format: ADME, organism-based, Macaca fascicularis; details: in vivo
[52] = Drug uptake in anesthetized cynomolgus monkey brain occipital lobe after 1.5 mins postinjection; format: ADME, organism-based, Macaca fascicularis; details: in vivo, 0.025 h
[53] = Ratio of drug uptake in thalamus to cerebellum in anesthetized cynomolgus monkey after 115 mins postinjection; format: ADME, organism-based, Macaca fascicularis; details: in vivo
Caudate [54] = experiment: Drug uptake in anesthetized cynomolgus monkey brain caudate after 3.5 mins postinjection; format: ADME, organism-based, Macaca fascicularis, Caudate nucleus; details: in vivo
[55] = Ratio of drug uptake in medulla to cerebellum in anesthetized cynomolgus monkey after 1.5 mins postinjection; format: ADME, organism-based, Macaca fascicularis; details: in vivo, 0.025 h
[56] = Drug uptake in anesthetized cynomolgus monkey brain frontal lobe after 145 mins postinjection; format: ADME, organism-based, Macaca fascicularis; details: in vivo
[57] = Ratio of drug uptake in midbrain to cerebellum in anesthetized cynomolgus monkey after 9.5 mins postinjection; format: ADME, organism-based, Macaca fascicularis; details: in vivo
[58] = Drug uptake in anesthetized cynomolgus monkey brain cerebellum after 12.5 mins postinjection; format: ADME, organism-based, Macaca fascicularis; details: in vivo
[59] = Ratio of drug uptake in thalamus to cerebellum in anesthetized cynomolgus monkey after 155 mins postinjection; format: ADME, organism-based, Macaca fascicularis; details: in vivo
Caudate [60] = experiment: Drug uptake in anesthetized cynomolgus monkey brain caudate after 235 mins postinjection; format: ADME, organism-based, Macaca fascicularis, Caudate nucleus; details: in vivo

## O=C(OCCC[18F])C1C2CCC(CC1c1cccc(/C=C\Br)c1)N2 (stereo not given)
[1]
  Drug uptake: 4.16
Putamen [2]
  Drug uptake: 6.05
[3]
  Ratio: 1
Medulla [4]
  Drug uptake: 5.41
[5]
  Ratio: 0.5
Putamen [6]
  Drug uptake: 6.11
[7]
  Drug uptake: 2.65
[8]
  Ratio: 1.1
[9]
  Ratio: 1.3
[10]
  Drug uptake: 4.35
[11]
  Drug uptake: 4.29
[12]
  Drug uptake: 3.67
Caudate [13]
  Drug uptake: 4.01
Midbrain [14]
  Drug uptake: 4.29
Putamen [15]
  Drug uptake: 4.58
Thalamus [16]
  Drug uptake: 4.64
[17]
  Ratio: 1.5
Thalamus [18]
  Drug uptake: 1.89
[19]
  Ratio: 0.9
Pons [20]
  Drug uptake: 5.08
Putamen [21]
  Drug uptake: 5.54
Putamen [22]
  Drug uptake: 0.3
[23]
  Ratio: 1.4
Midbrain [24]
  Drug uptake: 3.08
[25]
  Ratio: 0.9
Medulla [26]
  Drug uptake: 3.67
[27]
  Ratio: 2.2
Midbrain [28]
  Drug uptake: 6.06
Caudate [29]
  Drug uptake: 0.31
Medulla [30]
  Drug uptake: 3.34
Midbrain [31]
  Drug uptake: 5.59
[32]
  Ratio: 1
[33]
  Ratio: 0.7
Putamen [34]
  Drug uptake: 5.12
Putamen [35]
  Drug uptake: 2.28
[36]
  Ratio: 0.9
Thalamus [37]
  Drug uptake: 5.08
Midbrain [38]
  Drug uptake: 5.52
[39]
  Drug uptake: 4.52
Putamen [40]
  Drug uptake: 5.03
[41]
  Drug uptake: 2.44
[42]
  Drug uptake: 0.79
[43]
  Ratio: 0.8
Medulla [44]
  Drug uptake: 4.99
[45]
  Drug uptake: 1.47
[46]
  Drug uptake: 3.69
[47]
  Drug uptake: 3.29
Caudate [48]
  Drug uptake: 4.3
Midbrain [49]
  Drug uptake: 1.48
Pons [50]
  Drug uptake: 4.14
[51]
  Ratio: 1.1
[52]
  Drug uptake: 0.3
[53]
  Ratio: 1.5
Caudate [54]
  Drug uptake: 1.7
[55]
  Ratio: 0.9
[56]
  Drug uptake: 2.85
[57]
  Ratio: 0.9
[58]
  Drug uptake: 5.72
[59]
  Ratio: 1.6
Caudate [60]
  Drug uptake: 3.28

From ChEMBL document CHEMBL1151757, “Synthesis, radiosynthesis, and biological evaluation of fluorine-18-labeled 2beta-carbo(fluoroalkoxy)-3beta-(3'-((Z)-2-haloethenyl)phenyl)nortropanes: candidate radioligands for in vivo imaging of the serotonin transporter with positron emission tomography” (J Med Chem, 2008)
